Assay results: patent US11324749B2, “Combination therapy for treatment of hematological diseases” (Incyte Corporation, priority 2018, dated 2022)

Legend:
[1] = test system: Human multiple myeloma cell lines KMS12BM, OPM2, MM1.R, MM1.S and KMS11; assay: Cell Titer Glo viability of multiple myeloma cell lines; assay type: cell-based; conditions: 72 hours, compared to DMSO treated controls, all five cell lines
Description: Human multiple myeloma cell lines KMS12BM, OPM2 (DSMZ), MM1.R, MM1.S (ATCC) and KMS11 (JCRB) were seeded into white 96 well plates (Greiner Bio One) at 10^4 cells in 100 μL media. Combinations of dexamethasone (Sigma), lenalidomide (Chemscene), itacitinib, or DMSO control were then added. Doses were selected based on pilot studies designed to find sensitivities of each cell line to these agents. Each dose combination was performed in triplicate. After 72 hours, Cell Titer Glo (Promega) assays were performed as per manufacturer protocol to assess cell viability.
Statistical analyses were performed using Prism Graphpad software. P values were calculated from unpaired t tests—*p<0.05; **p<0.01; ****p<0.0001).

[2] = target: human JAK1 (a.a. 837-1142) (Homo sapiens, UniProt P23458); assay: In vitro JAK kinase assay (HTRF), JAK1; assay type: biochemical; conditions: 1 mM ATP
Description: (§1) The catalytic activity of JAK1, JAK2, or JAK3 was assayed by measuring the phosphorylation of a biotinylated peptide. The phosphorylated peptide was detected by homogenous time resolved fluorescence (HTRF). […] Reactions are carried out at room temperature for 1 hour and then stopped with 20 μL 45 mM EDTA, 300 nM SA-APC, 6 nM Eu-Py20 in assay buffer (Perkin Elmer, Boston, Mass.). Binding to the Europium labeled antibody takes place for 40 minutes and HTRF signal was measured on a Fusion plate reader (Perkin Elmer, Boston, Mass.).

[3] = target: human JAK2 (a.a. 828-1132) (Homo sapiens (Human), UniProt O60674); assay: In vitro JAK kinase assay (HTRF), JAK2 versus JAK1; assay type: biochemical; conditions: IC50 ratio, 1 mM ATP
human JAK2 (a.a. 828-1132), sequence (O60674 828-1132): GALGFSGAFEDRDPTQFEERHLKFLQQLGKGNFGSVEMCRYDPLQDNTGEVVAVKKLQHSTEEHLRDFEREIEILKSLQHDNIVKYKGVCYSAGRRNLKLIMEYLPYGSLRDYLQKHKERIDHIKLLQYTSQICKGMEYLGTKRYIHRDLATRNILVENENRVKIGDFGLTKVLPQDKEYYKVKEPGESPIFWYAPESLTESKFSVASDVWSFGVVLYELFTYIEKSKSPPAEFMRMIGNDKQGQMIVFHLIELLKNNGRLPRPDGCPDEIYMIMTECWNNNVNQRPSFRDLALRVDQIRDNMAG
Description: as §1

## N#CCC1(n2cc(-c3ncnc4[nH]ccc34)cn2)CN(C2CCN(C(=O)c3ccnc(C(F)(F)F)c3F)CC2)C1 [Compound 1, {1-{1-[3-Fluoro-2-(trifluoromethyl)isonicotinoyl]piperidin-4-yl}-3-[4-(7H-pyrrolo[2,3-d]pyrimidin-4-yl)-1H-pyrazol-1-yl]azetidin-3-yl}acetonitrile]
[1]
  cell viability: no change in viability
[2]
  IC50: < 10 nM
[3]
  JAK2/JAK1: >10
